According to PMC6008299, “Impact of race on dose selection of molecular-targeted agents in early-phase oncology trials” (British Journal of Cancer, 2018):
“Also recorded” adds a separate entry of the source.

Legend:
advanced solid tumours = experiment: Tumour assessment RECIST 1.1, US study; type: in vivo, human; settings: of 27 patients
Method: In both studies, the PK profile of DS-7423 was characterised during cycle 1 on days 1 and 8. For PD analysis, glucose, C-peptide, and Akt phosphorylation were measured in platelet-rich plasma collected at predose, 1, 2, 4, 6, and 24 h after dosing on days 1 and 15. Tumour assessment was performed every two cycles using Response Evaluation Criteria in Solid Tumours (RECIST) version 1.1 in both studies. 18F-Fluoro-2-deoxy-D-glucose positron emission tomography ([18F]-FDG) was performed as an exploratory endpoint at baseline and on day 4.[10]

[1] = test system: patients with advanced, refractory solid tumours; experiment: Phase I dose-escalation study U101 (US): safety, DLT, MTD; type: in vivo
From the text: Studies were approved by the Institutional Review Board at the participating institutions and regulatory authorities. Written informed consent in English and Japanese was obtained from all patients prior to enrollment.
Secondary and exploratory objectives were to evaluate PK, tumour response, and PD effects. Treatment-emergent adverse events (TEAE) were graded using the Common Terminology Criteria for Adverse Events version 4.0. A dose-limiting toxicity (DLT) was defined as a grade ≥3 clinically significant toxicity, with the exceptions of grade ≥4 anaemia and prolonged grade 3 neutropenia. Both studies were open-label, phase I dose-escalation studies. In Japan, the study was conducted at a single centre, while the US study was conducted at three sites. […] In the US, an accelerated titration design was used at low doses followed by a mCRM with EWOC. Briefly, the dose was escalated based on safety data in a single patient until a grade 2 or higher toxicity was observed during cycle 1 or the DLT period (days 1–28). […] Prophylactic granulocyte colony-stimulating factor and antiemetics were not permitted during cycle 1.

CC(=O)N1CCN(c2nc3c(N4CCOCC4)nc(-c4cnc(N)nc4)nc3n2CC(F)(F)F)C[C@H]1C [DS-7423]
Patients with tumour shrinkage and durable disease control (advanced solid tumours): 5 | AST increased (TEAE), n patients ([1]; 160 mg US cohort (n = 4)): 0 | Abdominal pain (TEAE), n patients ([1]; 160 mg US cohort (n = 4)): 1 | Back pain (TEAE), n patients ([1]; 160 mg US cohort (n = 4)): 0 | Blood creatinine increased (TEAE), n patients ([1]; 160 mg US cohort (n = 4)): 2 | Constipation (TEAE), n patients ([1]; 160 mg US cohort (n = 4)): 2 | Cough (TEAE), n patients ([1]; 160 mg US cohort (n = 4)): 0 | Decreased appetite (TEAE), n patients ([1]; 160 mg US cohort (n = 4)): 3 | Dehydration (TEAE), n patients ([1]; 160 mg US cohort (n = 4)): 1 | Diarrhoea (TEAE), n patients ([1]; 160 mg US cohort (n = 4)): 4 | Dry mouth (TEAE), n patients ([1]; 160 mg US cohort (n = 4)): 0 | Dysgeusia (TEAE), n patients ([1]; 160 mg US cohort (n = 4)): 1 | Dyspnea (TEAE), n patients ([1]; 160 mg US cohort (n = 4)): 0 | Edema (TEAE), n patients ([1]; 160 mg US cohort (n = 4)): 0 | Fatigue (TEAE), n patients ([1]; 160 mg US cohort (n = 4)): 4 | Hyperglycaemia (TEAE), n patients ([1]; 160 mg US cohort (n = 4)): 1 | Lung infection/ pneumonia (TEAE), n patients ([1]; 160 mg US cohort (n = 4)): 0 | Nausea (TEAE), n patients ([1]; 160 mg US cohort (n = 4)): 2 | Pyrexia (TEAE), n patients ([1]; 160 mg US cohort (n = 4)): 0 | Rash (TEAE), n patients ([1]; 160 mg US cohort (n = 4)): 0 | Stomatitis (TEAE), n patients ([1]; 160 mg US cohort (n = 4)): 1 | Vomiting (TEAE), n patients ([1]; 160 mg US cohort (n = 4)): 2 | Abdominal pain (TEAE), n patients ([1]; 240 mg US cohort (n = 9)): 4 | Back pain (TEAE), n patients ([1]; 240 mg US cohort (n = 9)): 3 | Blood creatinine increased (TEAE), n patients ([1]; 240 mg US cohort (n = 9)): 2 | Constipation (TEAE), n patients ([1]; 240 mg US cohort (n = 9)): 1 | Cough (TEAE), n patients ([1]; 240 mg US cohort (n = 9)): 0 | Decreased appetite (TEAE), n patients ([1]; 240 mg US cohort (n = 9)): 5 | Decreased appetite ≥G3, n patients ([1]; 240 mg US cohort (n = 9)): 1 | Dehydration (TEAE), n patients ([1]; 240 mg US cohort (n = 9)): 1 | Diarrhoea (TEAE), n patients ([1]; 240 mg US cohort (n = 9)): 5 | Dry mouth (TEAE), n patients ([1]; 240 mg US cohort (n = 9)): 3 | Dysgeusia (TEAE), n patients ([1]; 240 mg US cohort (n = 9)): 2 | Dyspnea (TEAE), n patients ([1]; 240 mg US cohort (n = 9)): 3 | Edema (TEAE), n patients ([1]; 240 mg US cohort (n = 9)): 1 | Fatigue (TEAE), n patients ([1]; 240 mg US cohort (n = 9)): 5 | Fatigue ≥G3, n patients ([1]; 240 mg US cohort (n = 9)): 1 | Hyperglycaemia (TEAE), n patients ([1]; 240 mg US cohort (n = 9)): 2 | Lung infection/ pneumonia (TEAE), n patients ([1]; 240 mg US cohort (n = 9)): 1 | Nausea (TEAE), n patients ([1]; 240 mg US cohort (n = 9)): 4 | Pyrexia (TEAE), n patients ([1]; 240 mg US cohort (n = 9)): 2 | Rash (TEAE), n patients ([1]; 240 mg US cohort (n = 9)): 0 | Stomatitis (TEAE), n patients ([1]; 240 mg US cohort (n = 9)): 5 | Stomatitis G3, n patients ([1]; 240 mg US cohort (n = 9)): 1 | Vomiting (TEAE), n patients ([1]; 240 mg US cohort (n = 9)): 3 | AST increased (TEAE), n patients ([1]; 240 mg US cohort (n = 9), cell marks ≥G3): 2, ≥G3 | AST increased (TEAE), n patients ([1]; 320 mg US cohort (n = 8)): 0 | Abdominal pain (TEAE), n patients ([1]; 320 mg US cohort (n = 8)): 0 | Back pain (TEAE), n patients ([1]; 320 mg US cohort (n = 8)): 0 | Blood creatinine increased (TEAE), n patients ([1]; 320 mg US cohort (n = 8)): 2 | Constipation (TEAE), n patients ([1]; 320 mg US cohort (n = 8)): 1 | Cough (TEAE), n patients ([1]; 320 mg US cohort (n = 8)): 1 | Decreased appetite (TEAE), n patients ([1]; 320 mg US cohort (n = 8)): 5 | Dehydration (TEAE), n patients ([1]; 320 mg US cohort (n = 8)): 3 | Dehydration G3, n patients ([1]; 320 mg US cohort (n = 8)): 1 | Diarrhoea (TEAE), n patients ([1]; 320 mg US cohort (n = 8)): 4 | Dry mouth (TEAE), n patients ([1]; 320 mg US cohort (n = 8)): 2 | Dysgeusia (TEAE), n patients ([1]; 320 mg US cohort (n = 8)): 5 | Dyspnea (TEAE), n patients ([1]; 320 mg US cohort (n = 8)): 2 | Edema (TEAE), n patients ([1]; 320 mg US cohort (n = 8)): 1 | Fatigue (TEAE), n patients ([1]; 320 mg US cohort (n = 8)): 6 | Fatigue G3, n patients ([1]; 320 mg US cohort (n = 8)): 1 | Hyperglycaemia (TEAE), n patients ([1]; 320 mg US cohort (n = 8)): 3 | Nausea (TEAE), n patients ([1]; 320 mg US cohort (n = 8)): 5 | Pyrexia (TEAE), n patients ([1]; 320 mg US cohort (n = 8)): 2 | Rash (TEAE), n patients ([1]; 320 mg US cohort (n = 8)): 3 | Stomatitis (TEAE), n patients ([1]; 320 mg US cohort (n = 8)): 1 | Vomiting (TEAE), n patients ([1]; 320 mg US cohort (n = 8)): 4 | Lung infection/ pneumonia (TEAE), n patients ([1]; 320 mg US cohort (n = 8), cell marks G3): 1, G3 | AST increased (TEAE), n patients ([1]; 2–28 mg US cohort (n = 10)): 3 | AST increased ≥G3, n patients ([1]; 2–28 mg US cohort (n = 10)): 1 | Abdominal pain (TEAE), n patients ([1]; 2–28 mg US cohort (n = 10)): 0 | Back pain (TEAE), n patients ([1]; 2–28 mg US cohort (n = 10)): 5 | Blood creatinine increased (TEAE), n patients ([1]; 2–28 mg US cohort (n = 10)): 0 | Constipation (TEAE), n patients ([1]; 2–28 mg US cohort (n = 10)): 3 | Cough (TEAE), n patients ([1]; 2–28 mg US cohort (n = 10)): 2 | Decreased appetite (TEAE), n patients ([1]; 2–28 mg US cohort (n = 10)): 3 | Dehydration (TEAE), n patients ([1]; 2–28 mg US cohort (n = 10)): 0 | Diarrhoea (TEAE), n patients ([1]; 2–28 mg US cohort (n = 10)): 5 | Dry mouth (TEAE), n patients ([1]; 2–28 mg US cohort (n = 10)): 3 | Dysgeusia (TEAE), n patients ([1]; 2–28 mg US cohort (n = 10)): 0 | Dyspnea (TEAE), n patients ([1]; 2–28 mg US cohort (n = 10)): 2 | Edema (TEAE), n patients ([1]; 2–28 mg US cohort (n = 10)): 2 | Fatigue (TEAE), n patients ([1]; 2–28 mg US cohort (n = 10)): 7 | Fatigue ≥G3, n patients ([1]; 2–28 mg US cohort (n = 10)): 2 | Hyperglycaemia (TEAE), n patients ([1]; 2–28 mg US cohort (n = 10)): 0 | Nausea (TEAE), n patients ([1]; 2–28 mg US cohort (n = 10)): 6 | Pyrexia (TEAE), n patients ([1]; 2–28 mg US cohort (n = 10)): 1 | Rash (TEAE), n patients ([1]; 2–28 mg US cohort (n = 10)): 2 | Stomatitis (TEAE), n patients ([1]; 2–28 mg US cohort (n = 10)): 1 | Vomiting (TEAE), n patients ([1]; 2–28 mg US cohort (n = 10)): 4 | Lung infection/ pneumonia (TEAE), n patients ([1]; 2–28 mg US cohort (n = 10), cell marks G3): 1, G3 | AST increased (TEAE), n patients ([1]; 48–80 mg US cohort (n = 11)): 1 | Abdominal pain (TEAE), n patients ([1]; 48–80 mg US cohort (n = 11)): 1 | Back pain (TEAE), n patients ([1]; 48–80 mg US cohort (n = 11)): 1 | Blood creatinine increased (TEAE), n patients ([1]; 48–80 mg US cohort (n = 11)): 0 | Constipation (TEAE), n patients ([1]; 48–80 mg US cohort (n = 11)): 0 | Cough (TEAE), n patients ([1]; 48–80 mg US cohort (n = 11)): 3 | Decreased appetite (TEAE), n patients ([1]; 48–80 mg US cohort (n = 11)): 2 | Diarrhoea (TEAE), n patients ([1]; 48–80 mg US cohort (n = 11)): 4 | Dry mouth (TEAE), n patients ([1]; 48–80 mg US cohort (n = 11)): 3 | Dysgeusia (TEAE), n patients ([1]; 48–80 mg US cohort (n = 11)): 2 | Dyspnea (TEAE), n patients ([1]; 48–80 mg US cohort (n = 11)): 1 | Edema (TEAE), n patients ([1]; 48–80 mg US cohort (n = 11)): 1 | Fatigue (TEAE), n patients ([1]; 48–80 mg US cohort (n = 11)): 5 | Fatigue ≥G3, n patients ([1]; 48–80 mg US cohort (n = 11)): 1 | Hyperglycaemia (TEAE), n patients ([1]; 48–80 mg US cohort (n = 11)): 2 | Lung infection/ pneumonia (TEAE), n patients ([1]; 48–80 mg US cohort (n = 11)): 0 | Nausea (TEAE), n patients ([1]; 48–80 mg US cohort (n = 11)): 6 | Pyrexia (TEAE), n patients ([1]; 48–80 mg US cohort (n = 11)): 2 | Rash (TEAE), n patients ([1]; 48–80 mg US cohort (n = 11)): 4 | Rash G3, n patients ([1]; 48–80 mg US cohort (n = 11)): 1 | Stomatitis (TEAE), n patients ([1]; 48–80 mg US cohort (n = 11)): 3 | Vomiting (TEAE), n patients ([1]; 48–80 mg US cohort (n = 11)): 3 | Dehydration (TEAE), n patients ([1]; 48–80 mg US cohort (n = 11), cell marks G3): 1, G3 | MTD ([1]; US study): 240 mg | Grade 3 DLT ([1]; US study, 48 mg): rash | Grade 3 DLT ([1]; US study, 240 mg): stomatitis; also recorded: fatigue and dehydration | Patients with DLT ([1]; US study, of 34 DLT-evaluable patients): 4
